In patent US8133889B2, “Dihydroindolone compounds, a process for their preparation and pharmaceutical compositions containing them” (Les Laboratoires Servier, priority 2009, dated 2012):

Legend:
[1] = system: human glioblastoma tumour U87-MG; assay: Inhibition of growth of the tumour U87-MG grafted subcutaneously in mice; type: in vivo, female Nude BalbC mouse; settings: oral route; for inhibition of growth: Day 35
Method: The human glioblastoma tumour U87-MG was grafted subcutaneously into the female Nude BalbC mouse in an amount of 10^6 cells. The tumours were then randomised into groups of eight mice once the tumour volume had reached 200 mm^3. Daily treatment (6.25, 12.5, 25 and 50 mg/kg) was administered by the oral route (vehicle=water) over a period of 17 days except for the weekends. The tumour volumes were measured twice a week using a sliding calliper. The inhibition of growth found after administration of the compounds according to the invention is statistically significant (two-factor ANOVA, with measurements repeated over time, followed by a DUNETT's test) at all doses tested between Day 21 and Day 35 (date for ethical sacrifice of the mice in the control group in conformity with ethical rules). […] Regression of the order of 70% is observed at a dose of 50 mg/kg.

[2] = system: A549 (human non-small cell lung carcinoma) cells; assay: Inhibition of the migration of A549 cells: scratch assay; type: cell-based; settings: at 30 nM; A549 cells exposed 38 hours; 40 ng/ml HGF
Method: Cells from the A549 (human non-small cell lung carcinoma) line are cultured in an incubator at 37° C. in the presence of 5% CO2 in RPMI 1640 medium containing 10% foetal calf serum, 40 ng/ml HGF (hepatocyte growth factor), 2 mM glutamine, 50 units/ml penicillin, 50 μg/ml streptomycin and 10 mM Hepes buffer, pH=7.4. For the migration test, the A549 cells are transferred to 96-well plates (50,000 cells per well) and cultured for 24 hours to obtain cells at confluence. A one-millimetre thick scratch is made in the cell layer, and the cells are exposed to the compounds under test for 38 hours. The cell cultures are then photographed, and filling of the scratch as a result of migration of the cells is assessed.

For `Cl.O=C1Nc2ccc(CN3CCOC3=O)cc2C1=Cc1cc(CN2CCCC2)c[nH]1`, the melting point was 204 °C.
`CC(=C1C(=O)Nc2ccc(CN3CCOC3=O)cc21)c1cc(CN2CCOCC2)c[nH]1.Cl` gave a melting point of 212 °C.
In the case of `O=C1Nc2ccc(CN3CCOC3=O)cc2C1=Cc1[nH]ccc1CN1CCOCC1` [Example 21, 3-(3-Morpholin-4-ylmethyl-1H-pyrrol-2-ylmethylene)-5-(2-oxo-oxazolidin-3-ylmethyl)-1,3-dihydro-indol-2-one], the melting point is reported as 192 °C.
Work on `Cl.O=C1Nc2ccc(CN3CCOC3=O)cc2C1=Cc1c[nH]cc1CN1CCOCC1` yielded a melting point of 210 °C.
In the case of `CC(=C1C(=O)Nc2ccc(CN3C(=O)COC3=O)cc21)c1cc(CN2CCOCC2)c[nH]1.Cl`, the melting point is reported as 220 °C.
`Cl.O=C1Nc2ccc(CN3CCSC3=O)cc2C1=Cc1cc(CN2CCOCC2)c[nH]1` gave a melting point of 244 °C.
For `Cl.O=C1Nc2ccc(CN3C(=O)CCC3=O)cc2C1=Cc1cc(CN2CCOCC2)c[nH]1`, the melting point was 212 °C.
`CC(=C1C(=O)Nc2ccc(CN3C(=O)CSC3=O)cc21)c1cc(CN2CCOCC2)c[nH]1.Cl` showed a melting point of 225 °C.
`Cl.O=C1Nc2ccc(CN3CCOC3=O)cc2C1=Cc1cc(CN2CCCCC2)c[nH]1` showed a melting point of 256 °C.
For `Cl.O=C1Nc2ccc(CN3CCOC3=O)cc2C1=Cc1cc(CN2C[C@H]3C[C@H]3C2)c[nH]1`, the melting point was 179 °C.
`Cc1[nH]c(C=C2C(=O)Nc3ccc(CN4CCOC4=O)cc32)c(C)c1CN1C[C@H]2CCC[C@H]2C1.Cl` showed a melting point of 204 °C.
Work on `Cl.O=C1Nc2ccc(CN3CCOC3=O)cc2C1=Cc1ccc(CN2CCOCC2)[nH]1` yielded a melting point of 195 °C.
Compound `Cl.O=C1Nc2ccc(CN3C(=O)[C@H]4C[C@H]4C3=O)cc2C1=Cc1cc(CN2CCCCC2)c[nH]1` has a melting point of 198 °C.
`Cl.O=C1Nc2ccc(CN3C(=O)CSC3=O)cc2C1=Cc1cc(CN2CCOCC2)c[nH]1` [Example 1, 3-[(3-{[4-(4-Morpholinylmethyl)-1H-pyrrol-2-yl]methylene}-2-oxo-2,3-dihydro-1H-indol-5-yl)methyl]-1,3-thiazolidine-2,4-dione hydrochloride] gave an inhibition of growth ([1]; 6.25 mg/kg daily) of 102%, an inhibition of growth ([1]; 12.5 mg/kg daily) of 84% and an inhibition of growth ([1]; 25 mg/kg daily) of 98%. The regression ([1]; 50 mg/kg daily) was ~70% and the “inhibition of migration (filling of the scratch)” value [2] was “total inhibition”.
With `CC1(C)OC(=O)N(Cc2ccc3c(c2)C(=Cc2cc(CN4CCOCC4)c[nH]2)C(=O)N3)C1=O.Cl` the melting point was 191 °C.
In the case of `Cl.O=C1Nc2ccc(CCN3C(=O)CSC3=O)cc2C1=Cc1cc(CN2CCOCC2)c[nH]1`, the melting point is reported as 289 °C (dec.).
In the case of `Cl.O=C1Nc2ccc(CN3C(=O)COC3=O)cc2C1=Cc1cc(CN2CCOCC2)c[nH]1`, the melting point is reported as 216 °C.
In the case of `CCN(CC)Cc1c[nH]c(C=C2C(=O)Nc3ccc(CN4CCOC4=O)cc32)c1.Cl`, the melting point is reported as 192 °C.
